Values of other authors in US20130273137A1, “DRUG DELIVERY COATING AND DEVICES” (MASSACHUSETTS EYE & EAR INFIRMARY, priority 2010, published 2013).

Tested on: S. aureus
Conditions: native MIC

## CN[C@H](CC(C)C)C(=O)N[C@H]1C(=O)N[C@@H](CC(N)=O)C(=O)N[C@H]2C(=O)N[C@H]3C(=O)N[C@H](C(=O)N[C@H](C(=O)O)c4cc(O)cc(O)c4-c4cc3ccc4O)[C@H](O)c3ccc(c(Cl)c3)Oc3cc2cc(c3O[C@@H]2O[C@H](CO)[C@@H](O)[C@H](O)[C@H]2O[C@H]2C[C@](C)(N)[C@H](O)[C@H](C)O2)Oc2ccc(cc2Cl)[C@H]1O [vancomycin]
  minimum inhibitory concentration of vancomycin against S. aureus: 0.5 to 2 µg/mL
